This passage reports IC50 results from patent US20250136576A1, “Heterocyclic Compounds and Uses Thereof” (ACEA Therapeutics, Inc., priority 2021, published 2025).

Each structure is given as a SMILES string.

For the first test, the system named is KM12-luc cells. The test can be described thus: Cell proliferation and growth inhibition assay (CCK-8) in KM12-luc. Format: cell-based. The following applies: KM12-Luc, 72 h, KM12-luc cells, treated with test compounds for 72 hrs, CCK-8 viability; read-out: NTRK IC50 in KM12-luc. The protocol:
MV-4-11 and H1975 cells were obtained from the American Type Culture Collection and KM12-luc cells were obtained from JCRB Cell Bank. All cell lines were maintained at 37° C. with 5% C02, in media supplemented with 10% fetal bovine serum and penicillin (100 units/mL) and streptomycin (100 μg/mL). MV-4-11 cells were maintained in Iscove's Modified Dubecco's Medium, H1975 cells were cultured with RPMI 1640 media, and KM12-luc cells were maintained in Dulbecco's Modification of Eagle's Medium. CCK-8 reagent was obtained from Yeasen. Cell proliferation was assessed by CCK-8 assay (Yeasen) per the manufacturer's instructions. […] Cell viability was assayed by incubating the cells with CCK-8 reagent for 1-4 hrs. Absorbance was measured at OD450 using the Beckman DTX880. The data was calculated using GraphPad Prism version 6.01. The IC50 values were fitted using a non-linear regression model with a sigmoidal dose response.
The IC50 is the point on the concentration scale where inhibition reaches its midpoint. On to `CCC(=O)Nc1cccc(Nc2ncc(F)c(Nc3ccc(N4CCN(C(C)=O)CC4)c(F)c3)n2)c1` [Compound 158, N-(3-((4-((4-(4-acetylpiperazin-1-yl)-3-fluorophenyl)amino)-5-fluoropyrimidin-2-yl)amino)phenyl)propionamide], for which the IC50 is > 1000 nM.

Regarding `CCC(=O)Nc1cccc(Nc2ncc(Cl)c(Nc3ccc(N4CCNCC4)cc3OC)n2)c1` [Compound 160, N-(3-((5-chloro-4-((2-methoxy-4-(piperazin-1-yl)phenyl)amino)pyrimidin-2-yl)amino)phenyl)propionamide], the 50% inhibitory concentration (IC50) was determined as 210 nM.

Regarding `CCC(=O)Nc1cccc(Nc2ncc(Cl)c(Nc3ccc(N4CCN(C)CC4)cc3OC)n2)c1` [Compound 161, N-(3-((5-chloro-4-((2-methoxy-4-(4-methylpiperazin-1-yl)phenyl)amino)pyrimidin-2-yl)amino)phenyl)propionamide], the IC50 was found to be 146 nM.

On to `CCC(=O)Nc1cccc(Nc2ncc(Cl)c(Nc3ccc(N4CCN(C(C)=O)CC4)cc3OC)n2)c1` [Compound 162, N-(3-((4-((4-(4-acetylpiperazin-1-yl)-2-methoxyphenyl)amino)-5-chloropyrimidin-2-yl)amino)phenyl)propionamide], for which the IC50 is 129 nM.

Regarding `CCC(=O)Nc1cccc(Nc2ncc(Cl)c(Nc3ccc(C4CCCNC4)cc3OC)n2)c1` (stereo not drawn) [Compound 164, N-(3-((5-chloro-4-((2-methoxy-4-(piperidin-3-yl)phenyl)amino)pyrimidin-2-yl)amino)phenyl)propionamide], the IC50 was determined as 50.5 nM.

Consider `CCC(=O)Nc1cccc(Nc2ncc(Cl)c(Nc3ccc(C4CCCN(C(C)=O)C4)cc3OC)n2)c1` (stereo not drawn) [Compound 165, N-(3-((4-((4-(1-acetylpiperidin-3-yl)-2-methoxyphenyl)amino)-5-chloropyrimidin-2-yl)amino)phenyl)propionamide], for which the IC50 is 171 nM.

In the case of `COc1cc(N2CCN(C(C)=O)CC2)ccc1Nc1nc(Nc2cccc(NC(C)=O)c2)ncc1C(F)(F)F` [Compound 173, N-(3-((4-((4-(4-acetylpiperazin-1-yl)-2-methoxyphenyl)amino)-5-(trifluoromethyl)pyrimidin-2-yl)amino)phenyl)acetamide], the IC50 worked out at 85.7 nM.

On to `CNc1cccc(Oc2nc(Nc3ccc(N4CCN(C)CC4)c(F)c3)nc3[nH]ccc23)c1` [Compound 177, N-(3-fluoro-4-(4-methylpiperazin-1-yl)phenyl)-4-(3-(methylamino)phenoxy)-7H-pyrrolo[2,3-d]pyrimidin-2-amine], for which the IC50 stood at 132 nM.

Consider `CN(C)CCN(C)c1ccc(Nc2nc(Oc3cccc(N)c3)c3cc[nH]c3n2)cc1F` [Compound 180, N^4-(4-(3-aminophenoxy)-7H-pyrrolo[2,3-d]pyrimidin-2-yl)-N^1-(2-(dimethylamino)ethyl)-2-fluoro-N1-methylbenzene-1,4-diamine], for which the IC50 came to 3060 nM.

In the case of `CC(=O)Nc1cccc(Oc2nc(Nc3ccc(N(C)CCN(C)C)c(F)c3)nc3[nH]ccc23)c1` [Compound 181a, N-(3-((2-((4-((2-(dimethylamino)ethyl)(methyl)amino)-3-fluorophenyl)amino)-7H-pyrrolo[2,3-d]pyrimidin-4-yl)oxy)phenyl)acetamide], the IC50 was > 10000 nM.

`CN(C)CCN(C)c1ccc(Nc2nc(Oc3cccc(N)c3)c3cc[nH]c3n2)cc1` [Compound 184, N^1-(4-(3-aminophenoxy)-7H-pyrrolo[2,3-d]pyrimidin-2-yl)-N^4-(2-(dimethylamino)ethyl)-N^4-methylbenzene-1,4-diamine]: the 50% inhibitory concentration (IC50) turned out to be 407 nM.

Consider `CC(=O)Nc1cc(Nc2nc(-c3c[nH]c4ccccc34)c3cc[nH]c3n2)ccc1N(C)CCN(C)C` [Compound 189, N-(5-((4-(1H-indol-3-yl)-7H-pyrrolo[2,3-d]pyrimidin-2-yl)amino)-2-((2-(dimethylamino)ethyl)(methyl)amino)phenyl)acetamide], for which the IC50 is 28.7 nM.

Consider `CC(=O)Nc1cc(Nc2nc(-c3cn(C)c4ccccc34)c3cc[nH]c3n2)cc(F)c1N(C)CCN(C)C` [Compound 190, N-(2-((2-(dimethylamino)ethyl)(methyl)amino)-3-fluoro-5-((4-(1-methyl-1H-indol-3-yl)-7H-pyrrolo[2,3-d]pyrimidin-2-yl)amino)phenyl)acetamide], for which the IC50 came to 60.4 nM.

For `CNc1cc(Nc2nc(-c3cn(C)c4ccccc34)c3cc[nH]c3n2)ccc1N(C)CCN(C)C` [Compound 192, N^1-(2-(dimethylamino)ethyl)-N^1,N^2-dimethyl-N^4-(4-(1-methyl-1H-indol-3-yl)-7H-pyrrolo[2,3-d]pyrimidin-2-yl)benzene-1,2,4-triamine], the IC50 was found to be 525 nM.

As to `CN(C)CCN(C)c1ccc(Nc2nc(-c3cn(C)c4ccccc34)c3cc[nH]c3n2)cc1NCC(F)(F)F` [Compound 194, N^1-(2-(dimethylamino)ethyl)-N^1-methyl-N^4-(4-(1-methyl-1H-indol-3-yl)-7H-pyrrolo[2,3-d]pyrimidin-2-yl)-N^2-(2,2,2-trifluoroethyl)benzene-1,2,4-triamine], the IC50 is 722 nM.

For `CCN(CCN(C)C)c1c(F)cc(Nc2nc(-c3cn(C)c4ccccc34)c3cc[nH]c3n2)cc1NC(C)=O` [Compound 195a, N-(2-((2-(dimethylamino)ethyl)(ethyl)amino)-3-fluoro-5-((4-(1-methyl-1H-indol-3-yl)-7H-pyrrolo[2,3-d]pyrimidin-2-yl)amino)phenyl)acetamide], the IC50 worked out at 153 nM.

In the case of `CCN(CCN(C)C)c1c(F)cc(Nc2nc(-c3cn(C)c4ccccc34)c3ccn(C)c3n2)cc1NC(C)=O` [Compound 195b, N-(2-((2-(dimethylamino)ethyl)(ethyl)amino)-3-fluoro-5-((7-methyl-4-(1-methyl-1H-indol-3-yl)-7H-pyrrolo[2,3-d]pyrimidin-2-yl)amino)phenyl)acetamide], the IC50 stood at 561 nM.

Consider `CCN(CCN(C)C)c1ccc(Nc2nc(-c3cn(C)c4ccccc34)c3cc[nH]c3n2)cc1NC` [Compound 197, N^1-(2-(dimethylamino)ethyl)-N^1-ethyl-N^2-methyl-N^4-(4-(1-methyl-1H-indol-3-yl)-7H-pyrrolo[2,3-d]pyrimidin-2-yl)benzene-1,2,4-triamine], for which the IC50 was 376 nM.

On to `CN(C)CCN(C)c1ccc(Nc2nc(-c3cn(C)c4ccccc34)c3cc[nH]c3n2)cc1N` [Compound 204, N^1-(2-(dimethylamino)ethyl)-N^1-methyl-N^4-(4-(1-methyl-1H-indol-3-yl)-7H-pyrrolo[2,3-d]pyrimidin-2-yl)benzene-1,2,4-triamine], for which the IC50 is 45.8 nM.

Still in this test, the particulars now being: KM12-Luc, 72 h, read-out: NTRK IC50 in KM12-luc.
Consider `CC(=O)Nc1cc(Nc2nc(-c3cn(C)c4ccccc34)c3cc[nH]c3n2)ccc1N(C)CCN(C)C` [Compound 205a, N-(2-((2-(dimethylamino)ethyl)(methyl)amino)-5-((4-(1-methyl-1H-indol-3-yl)-7H-pyrrolo[2,3-d]pyrimidin-2-yl)amino)phenyl)acetamide], for which the IC50 was 37 nM.

The same test, now with this note: KM12-luc cells, treated with test compounds for 72 hrs, CCK-8 viability; read-out: NTRK IC50 in KM12-luc.
Regarding `CC(=O)Nc1cccc(Oc2nc(Nc3ccc4c(c3)[N+](C)(C)CCN4C)nc3[nH]ccc23)c1` [Compound 181b, 7-((4-(3-acetamidophenoxy)-7H-pyrrolo[2,3-d]pyrimidin-2-yl)amino)-1,1,4-trimethyl-1,2,3,4-tetrahydroquinoxalin-1-ium], the IC50 was > 10000 nM.
